# Experimental data from US8569447B2, “Cell-permeable peptide inhibitors of the JNK signal transduction pathway” (Xigen SA, priority 2003, dated 2013).
# Non-standard residues stand in square brackets, D forms with d. Residues, ends and D or L forms follow the SMILES beside them.
# How the values were obtained:
# [1] = Systolic and diastolic blood pressure after D-JNKI injection; assay type: in vivo, mice; settings: 10 minutes before until 30 minutes after injection
# Source text: Using male ICR-CD1 mice (approximately 6 weeks old and weighing in the range of about 18 to 37 g) (Harlan, Inc.), ischemia was provoked by introducing a filament from the common carotid artery into the internal carotid artery and advancing the filament into the arterial circle, thereby occluding the middle cerebral artery. See, e.g., Huang et al., Science, 265:1883-85 (1994); Hara et al., Proc. Natl. Acad. Sci. (USA) 94:2007-12 (1997); each of which is hereby incorporated by reference in its entirety. Regional cerebral blood flow was measured by laser-Doppler flowmetry with a probe fixed on the skull throughout the ischemia and until 10 minutes after reperfusion. Rectal temperature was measured and maintained at 37° C. The animals were sacrificed 48 hours after reperfusion. Serial cryostat sections […] were traced using a computer-microscope system equipped with the Neurolucida program (Microbrightfield, Inc.), and the volumes of the ischemic area and of the whole brain were calculated (blind) with the Neuroexplorer program. Systolic and diastolic blood pressure were measured with an arterial catheter in three additional mice from 10 minutes before the D-JNKI injection until 30 minutes afterwards. […] The Guidelines of the Swiss Federal Veterinary Office were followed in all experiments.
# [2] = Rotarod test of motor coordination; assay type: in vivo, mice; settings: for motor coordination (rotarod), overall: doses of Table 2: D-JNKI i.p. and icv, MK-801 1 mg/Kg i.p.
# Procedure: Typically, the high toxicity of other neuroprotective compounds has severely limited their clinical use. (See Gladstone et al., Stroke, 33:2123-36 (2002), incorporated by reference in its entirety). The ability of mice to maintain themselves on horizontal turning rotarod was used as criterion for possible side effects of different doses of D-JNKI and of a therapeutic dose of MK-801 (1 mg/Kg, a standard therapeutic dose). […] (11 and 110 mg/Kg) and icv injections of D-JNKI (2 μl containing 15.7 ng or 157 ng of D-JNKI). The i.p. injection of MK-801 (1 mg/Kg) was used as a control compound during this assessment procedure.
# The mice were trained the day before and in the morning of the experimental day, in order to reduce the variability between subjects. Both training and test sessions were identical for control and injected mice. […] The mice were placed on the rotarod, which was programmed to accelerate uniformly from 4 to 40 rpm. The latency to falls for each mouse tested was recorded. The results of this assessment using the rotarod method are presented in Table 2 as median latency to fall (measured in seconds).
# recombinant JNK1α1 = recombinant JNK1α1 (Homo sapiens, UniProt P45983); assay: In vitro kinase assay with recombinant JNK1α1; assay type: biochemical
# Procedure: (§1) Cellular extracts were prepared by scraping cells in lysis buffer (20 mM Tris-acetate, 1 mM EGTA, 1% Triton X-100, 10 mM p-nitrophenyl-phosphate, 5 mM sodium pyrophosphate, 10 mM β-glycerophosphate, 1 mM dithiothreitol). 25 μg samples were incubated for 1 hour at room temperature with 1 μg GST-c-Jun (amino acid residues 1-89) and 10 μL glutathione-agarose beads (Sigma). The beads were washed four times and then resuspended in the lysis buffer described above. In vitro kinase assays were then performed using recombinant JNK1α1 and 0.5 μg of a substrate selected from the group consisting of GST-fusion proteins (e.g., GST-Jun and GST-Elk1 fusion proteins), casein and histone (Sigma). Reactions were initiated with 10 mM MgCl2 and 10 μM ATP in the presence of 5 μCi ^33P-ATP, and were incubated for 30 minutes at 30° C. The reaction products were separated by SDS-PAGE, and the gels were dried and then exposed to X-ray films (Kodak).
# The terms “P-Jun” and “P-Elk1,” as used herein, refer to the radiolabeled (i.e., phosphorylated with ^33P-ATP) forms of GST-Jun and GST-Elk1 substrates, respectively.
# ERK2 = ERK2 (Homo sapiens, UniProt P28482); assay: Kinase specificity assay; assay type: biochemical; settings: 500 μM
# Procedure: as §1
# (§2) In vitro experiments were performed to determine the specificity of the JNKI peptides in blocking JNK activation. […] The complete list of substrates used in these experiments can be found on the world wide web at www.upstate.com/img/pdf/KinaseProfiler.pdf. […] The substrates for these kinases are ERK2:ERK1; p38:ATF2; p34, pKC, pKA:histone; and caK:caseine. […] For a discussion of other small chemical inhibitors of the Jun N-terminal kinase (JNK), See Bennett et al., Proc. Natl. Acad. Sci. (USA), 98:13681-86 (2001), hereby incorporated by reference in its entirety.
# caK = assay: Kinase specificity assay; assay type: biochemical; settings: 500 μM, substrate caseine
# Procedure: as §1, §2
# p34 = p34 (Homo sapiens, UniProt P06493); assay: Kinase specificity assay; assay type: biochemical; settings: 500 μM, substrate histone
# Procedure: as §1, §2
# p38 = p38 (Homo sapiens, UniProt Q16539); assay: Kinase specificity assay; assay type: biochemical; settings: 500 μM, substrate ATF2
# Procedure: as §1, §2
# pKC = assay: Kinase specificity assay; assay type: biochemical; settings: 500 μM, substrate histone
# Procedure: as §1
# In vitro experiments were performed to determine the specificity of the JNKI peptides in blocking JNK activation. In particular, the effect of these peptides on the activity of 40 different kinases (10 μM peptides, 10 μM ATP) towards their respective substrates was tested. The complete list of substrates used in these experiments can be found on the world wide web at www.upstate.com/img/pdf/KinaseProfiler.pdf. […]
# JNK = settings: JBDs of IB1 and IB2; cited from earlier work
# βTC-3 cell cultures = assay: Cellular import of fluorescein-labeled peptides; assay type: cell-based; settings: 1 μM, βTC-3 cells
# Procedure: The ability of the L- and D-enantiomeric forms of TAT, TAT-IB1 and TAT-IB2 peptides (“TAT-IB peptides”) to enter cells were evaluated.
# Labeled peptides (1 μM) were added to βTC-3 cell cultures, which were maintained as described in Example 3. At predetermined times, cells were washed with PBS and fixed for five minutes in ice-cold methanol-acetone (1:1) before being examined under a fluorescence microscope. Fluorescein-labeled BSA (1 μM, 12 moles/mole BSA) was used as a control.
# recombinant JNK1α1, sequence (P45983 1-384 isoform P45983-2, species assumed): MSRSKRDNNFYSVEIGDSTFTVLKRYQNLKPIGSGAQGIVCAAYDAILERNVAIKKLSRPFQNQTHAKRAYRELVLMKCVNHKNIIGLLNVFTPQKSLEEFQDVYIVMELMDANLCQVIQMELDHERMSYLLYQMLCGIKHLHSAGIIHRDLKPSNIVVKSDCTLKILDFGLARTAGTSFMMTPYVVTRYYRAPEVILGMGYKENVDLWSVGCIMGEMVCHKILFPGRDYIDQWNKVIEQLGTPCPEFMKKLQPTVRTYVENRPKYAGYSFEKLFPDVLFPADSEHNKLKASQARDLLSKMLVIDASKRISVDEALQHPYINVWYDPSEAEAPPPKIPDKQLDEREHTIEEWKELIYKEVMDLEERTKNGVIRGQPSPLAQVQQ
# p38, sequence (Q16539 whole entry): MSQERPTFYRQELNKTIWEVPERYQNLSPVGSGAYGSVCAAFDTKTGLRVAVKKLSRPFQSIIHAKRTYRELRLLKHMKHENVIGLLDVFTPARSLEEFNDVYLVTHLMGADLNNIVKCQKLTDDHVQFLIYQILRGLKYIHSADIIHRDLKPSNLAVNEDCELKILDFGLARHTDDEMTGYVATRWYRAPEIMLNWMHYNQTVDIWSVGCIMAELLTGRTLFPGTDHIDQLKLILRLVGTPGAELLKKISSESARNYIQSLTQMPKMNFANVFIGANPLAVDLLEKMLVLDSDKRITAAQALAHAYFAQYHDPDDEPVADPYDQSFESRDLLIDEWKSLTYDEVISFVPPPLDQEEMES
# ERK2, sequence (P28482 whole entry, species assumed): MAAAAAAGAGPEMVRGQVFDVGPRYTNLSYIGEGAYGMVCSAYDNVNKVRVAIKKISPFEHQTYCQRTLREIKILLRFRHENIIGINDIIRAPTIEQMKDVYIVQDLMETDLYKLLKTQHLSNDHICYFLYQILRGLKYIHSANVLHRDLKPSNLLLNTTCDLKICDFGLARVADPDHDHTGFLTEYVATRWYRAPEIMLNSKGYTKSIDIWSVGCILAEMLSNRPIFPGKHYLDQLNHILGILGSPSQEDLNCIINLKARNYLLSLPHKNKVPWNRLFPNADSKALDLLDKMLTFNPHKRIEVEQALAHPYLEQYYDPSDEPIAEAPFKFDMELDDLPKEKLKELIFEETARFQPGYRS
# p34, sequence (P06493 whole entry): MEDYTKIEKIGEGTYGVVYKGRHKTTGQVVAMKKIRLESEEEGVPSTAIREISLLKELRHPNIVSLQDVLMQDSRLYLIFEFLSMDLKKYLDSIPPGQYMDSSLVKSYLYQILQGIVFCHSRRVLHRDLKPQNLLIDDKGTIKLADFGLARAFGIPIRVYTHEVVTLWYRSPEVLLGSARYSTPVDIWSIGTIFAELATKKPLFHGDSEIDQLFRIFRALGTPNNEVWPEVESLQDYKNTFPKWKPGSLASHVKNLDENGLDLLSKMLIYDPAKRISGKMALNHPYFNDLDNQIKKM
compound,measurement,setting,value
"CC(C)C[C@@H](NC(=O)[C@@H](Cc1ccccc1)NC(=O)[C@H]1CCCN1C(=O)[C@@H](CCC(N)=O)NC(=O)[C@H](NC(=O)[C@H]1CCCN1C(=O)[C@@H](CCCNC(=N)N)NC(=O)[C@@H](CO)NC(=O)[C@@H](CCC(N)=O)NC(=O)[C@@H](CC(=O)O)NC(=O)[C@H](N)[C@H](C)O)C(C)C)C(=O)N[C@H](CC(N)=O)C(=O)N[C@H](CC(C)C)C(=O)N[C@@H](C(=O)N[C@@H](C(=O)N1CCC[C@@H]1C(=O)N[C@H](CCCNC(=N)N)C(=O)N[C@H](CCCCN)C(=O)N1CCC[C@@H]1C(=O)N[C@H](CCCNC(=N)N)C(=O)N1CCC[C@@H]1C(=O)N1CCC[C@@H]1C(=O)N[C@H](CCCNC(=N)N)C(=O)N[C@H](CCCNC(=N)N)C(=O)N[C@H](CCCNC(=N)N)C(=O)N[C@H](CCC(N)=O)C(=O)N[C@H](CCCNC(=N)N)C(=O)N[C@H](CCCNC(=N)N)C(=O)N[C@H](CCCCN)C(=O)N[C@H](CCCCN)C(=O)N[C@H](CCCNC(=N)N)C(=O)NCC(=O)O)[C@H](C)O)[C@H](C)O [D-JNKI, TDQSRPVQPF LNLTTPRKPR PPRRRQR RKKRG] (H-[dT][dD][dQ][dS][dR][dP][dV][dQ][dP][dF][dL][dN][dL][dT][dT][dP][dR][dK][dP][dR][dP][dP][dR][dR][dR][dQ][dR][dR][dK][dK][dR]G-OH)",change of blood pressure,[1],less than 10%
same,Median Latency to Fall,"[2]; 15.7 ng icv, 1 day",302 s
same,Median Latency to Fall,"[2]; 15.7 ng icv, 6 days",345 s
same,Median Latency to Fall,"[2]; 15.7 ng icv, 12 days",285 s
same,Median Latency to Fall,"[2]; 15.7 ng icv, +3 hours",342 s
same,Median Latency to Fall,"[2]; 15.7 ng icv, −1 hour",210 s
same,Median Latency to Fall,"[2]; 157 ng icv, 1 day",253 s
same,Median Latency to Fall,"[2]; 157 ng icv, 6 days",338 s
same,Median Latency to Fall,"[2]; 157 ng icv, 12 days",335 s
same,Median Latency to Fall,"[2]; 157 ng icv, +3 hours",200 s
same,Median Latency to Fall,"[2]; 157 ng icv, −1 hour",260 s
same,Median Latency to Fall,"[2]; 11 mg/Kg i.p., 1 day",372 s
same,Median Latency to Fall,"[2]; 11 mg/Kg i.p., 6 days",287 s
same,Median Latency to Fall,"[2]; 11 mg/Kg i.p., 12 days",418 s
same,Median Latency to Fall,"[2]; 11 mg/Kg i.p., +3 hours",221 s
same,Median Latency to Fall,"[2]; 11 mg/Kg i.p., −1 hour",204 s
same,Median Latency to Fall,"[2]; 110 mg/Kg i.p., 1 day",447 s
same,Median Latency to Fall,"[2]; 110 mg/Kg i.p., 6 days",416 s
same,Median Latency to Fall,"[2]; 110 mg/Kg i.p., 12 days",325 s
same,Median Latency to Fall,"[2]; 110 mg/Kg i.p., +3 hours",266 s
same,Median Latency to Fall,"[2]; 110 mg/Kg i.p., −1 hour",276 s
same,motor impairment,[2]; at 6 and 15 days following treatment,no sign of motor impairment
same,"motor coordination (rotarod), overall",[2],unimpaired
"CC(C)C[C@H](NC(=O)[C@H](CC(N)=O)NC(=O)[C@H](CC(C)C)NC(=O)[C@@H](NC(=O)[C@@H](NC(=O)[C@@H]1CCCN1C(=O)[C@H](CCCNC(=N)N)NC(=O)[C@H](CCCCN)NC(=O)[C@@H]1CCCN1C(=O)[C@@H](N)CCCNC(=N)N)[C@@H](C)O)[C@@H](C)O)C(=O)N[C@@H](Cc1ccccc1)C(=O)N1CCC[C@H]1C(=O)N[C@@H](CCC(N)=O)C(=O)N[C@H](C(=O)N1CCC[C@H]1C(=O)N[C@@H](CCCNC(=N)N)C(=O)N[C@@H](CO)C(=O)N[C@@H](CCC(N)=O)C(=O)N[C@@H](CC(=O)O)C(=O)N[C@H](C(=O)O)[C@@H](C)O)C(C)C [L-JBD20, RPKRPTTLNL FPQVPRSQDT] (H-RPKRPTTLNLFPQVPRSQDT-OH)",IC50,"recombinant JNK1α1; JNK targets ATF2, IRS-1, MADD, bcl-xl, each case, data not shown",~1000 nM
same,inhibition of JNK action without the TAT sequence,recombinant JNK1α1; dose response,can inhibit JNK action
same,interference with activity of ERK2,ERK2,did not interfere with the activity
same,interference with activity of caK,caK,did not interfere with the activity
same,interference with activity of p34,p34,did not interfere with the activity
same,interference with activity of p38,p38,did not interfere with the activity
same,interference with activity of pKC,pKC,did not interfere with the activity
"N=C(N)NCCC[C@H](NC(=O)[C@H](CCCNC(=N)N)NC(=O)[C@H](CCCNC(=N)N)NC(=O)[C@H](CCC(N)=O)NC(=O)[C@H](CCCNC(=N)N)NC(=O)[C@H](CCCNC(=N)N)NC(=O)[C@H](CCCCN)NC(=O)[C@H](CCCCN)NC(=O)[C@H](CCCNC(=N)N)NC(=O)CN)C(=O)O [L-TAT, reference compound]",concentration at which the TAT sequence induces nonspecific precipitation of the proteins in the extracts,recombinant JNK1α1,greater than 50 μM
"C[C@]12N[C@H](Cc3ccccc31)c1ccccc12 [MK-801, reference compound]",Median Latency to Fall,"[2]; 1 mg/Kg i.p., 1 day",174 s
same,Median Latency to Fall,"[2]; 1 mg/Kg i.p., 6 days",233 s
same,Median Latency to Fall,"[2]; 1 mg/Kg i.p., 12 days",292 s
same,Median Latency to Fall,"[2]; 1 mg/Kg i.p., +3 hours",incapable
same,Median Latency to Fall,"[2]; 1 mg/Kg i.p., −1 hour",226 s
same,lethality,[2]; 10-fold higher dose of MK-801,killed all the mice
same,"motor coordination (rotarod), overall",[2],dramatic impairment of motor coordination
same,time after which side effects essentially disappear,[2]; lower dose of MK-801 (1 mg/Kg i.p.),24 h
IPSPSVEEPHKHRPTTLRLTTLGAQDS (IPSPSVEEPHKHRPTTLRLTTLGAQDS) [IB2-long],efficiency in binding JNK relative to c-Jun or ATF2,JNK,approximately 100 fold
PGTGCGDTYRPKRPTTLNLFPQVPRSQDT (PGTGCGDTYRPKRPTTLNLFPQVPRSQDT) [IB1-long],efficiency in binding JNK relative to c-Jun or ATF2,JNK,approximately 100 fold
fluorescein labeled bovine serum albumin: fluorescein labeled BSA (12 moles fluorescein/mole BSA) used as a control,entry into cells,βTC-3 cell cultures,did not enter the cells
